# Assay results: PubChem BioAssay (NCI)
#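 In this assay, cells in 96-well plates receive the compound at five concentrations for 48 hours. Endpoints are linearly interpolated between the surrounding concentrations. Here, GI50 denotes the concentration required for 50% inhibition of growth. At the TGI there is no net growth.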
# Assays:
# Test in all cases: DTP human tumour cell line panel, 48 h
# 786-0 renal = tested on: 786-0 renal
# HOP-62 NSCLC = tested on: HOP-62 NSCLC
# SK-OV-3 ovarian = tested on: SK-OV-3 ovarian
# PC-3 prostate = tested on: PC-3 prostate
# SK-MEL-28 melanoma = tested on: SK-MEL-28 melanoma
# SW-620 colon = tested on: SW-620 colon
# A498 renal = tested on: A498 renal
# SF-268 CNS = tested on: SF-268 CNS
# U251 CNS = tested on: U251 CNS
# HCT-116 colon = tested on: HCT-116 colon
# MDA-MB-435 = tested on: MDA-MB-435
# HL-60(TB) leukemia = tested on: HL-60(TB) leukemia
# HT29 colon = tested on: HT29 colon
# COLO 205 colon = tested on: COLO 205 colon
# CAKI-1 renal = tested on: CAKI-1 renal
# TK-10 renal = tested on: TK-10 renal
# HCC-2998 colon = tested on: HCC-2998 colon
# OVCAR-3 ovarian = tested on: OVCAR-3 ovarian
# M14 melanoma = tested on: M14 melanoma
# UACC-257 melanoma = tested on: UACC-257 melanoma
# SK-MEL-5 melanoma = tested on: SK-MEL-5 melanoma
# HS 578T breast = tested on: HS 578T breast
# OVCAR-8 ovarian = tested on: OVCAR-8 ovarian
# SN12C renal = tested on: SN12C renal
# BT-549 breast = tested on: BT-549 breast
# NCI/ADR-RES ovarian = tested on: NCI/ADR-RES ovarian
# SR leukemia = tested on: SR leukemia
# DU-145 prostate = tested on: DU-145 prostate
# OVCAR-4 ovarian = tested on: OVCAR-4 ovarian
# NCI-H460 lung = tested on: NCI-H460 lung
# A549 NSCLC = tested on: A549 NSCLC
# MALME-3M melanoma = tested on: MALME-3M melanoma
# T-47D breast = tested on: T-47D breast
# SF-539 CNS = tested on: SF-539 CNS
# MCF7 breast = tested on: MCF7 breast
# OVCAR-5 ovarian = tested on: OVCAR-5 ovarian
# MDA-MB-231 breast = tested on: MDA-MB-231 breast
# SNB-75 CNS = tested on: SNB-75 CNS
# KM12 colon = tested on: KM12 colon
# EKVX NSCLC = tested on: EKVX NSCLC
# CCRF-CEM leukemia = tested on: CCRF-CEM leukemia
# HCT-15 colon = tested on: HCT-15 colon
# HOP-92 NSCLC = tested on: HOP-92 NSCLC
# NCI-H226 lung = tested on: NCI-H226 lung
# SNB-19 CNS = tested on: SNB-19 CNS
# LOX IMVI melanoma = tested on: LOX IMVI melanoma
# RPMI-8226 leukemia = tested on: RPMI-8226 leukemia
# NCI-H522 lung = tested on: NCI-H522 lung
# ACHN renal = tested on: ACHN renal
# K-562 leukemia = tested on: K-562 leukemia
# NCI-H23 lung = tested on: NCI-H23 lung
# SF-295 CNS = tested on: SF-295 CNS
# IGROV1 ovarian = tested on: IGROV1 ovarian
# RXF 393 renal = tested on: RXF 393 renal
# SK-MEL-2 melanoma = tested on: SK-MEL-2 melanoma
# UO-31 renal = tested on: UO-31 renal
# MOLT-4 leukemia = tested on: MOLT-4 leukemia
smiles,measurement,setting,value
CN1CCN(C(=O)C(C)(C)c2ccc(C(=O)Nc3cn4cc(-c5ccncc5)ccc4n3)cc2)CC1,GI50,786-0 renal,539 nM
same,TGI,786-0 renal,> 100000 nM
same,GI50,HOP-62 NSCLC,307 nM
same,TGI,HOP-62 NSCLC,> 53000 nM
same,GI50,SK-OV-3 ovarian,275 nM
same,TGI,SK-OV-3 ovarian,17500 nM
same,GI50,PC-3 prostate,382 nM
same,TGI,PC-3 prostate,> 70200 nM
same,GI50,SK-MEL-28 melanoma,343 nM
same,TGI,SK-MEL-28 melanoma,6470 nM
same,GI50,SW-620 colon,185 nM
same,TGI,SW-620 colon,> 56000 nM
same,GI50,A498 renal,157 nM
same,TGI,A498 renal,418 nM
same,GI50,SF-268 CNS,380 nM
same,TGI,SF-268 CNS,10500 nM
same,GI50,U251 CNS,332 nM
same,TGI,U251 CNS,> 100000 nM
same,GI50,HCT-116 colon,80.2 nM
same,TGI,HCT-116 colon,> 100000 nM
same,GI50,MDA-MB-435,367 nM
same,TGI,MDA-MB-435,17500 nM
same,GI50,HL-60(TB) leukemia,371 nM
same,TGI,HL-60(TB) leukemia,3550 nM
same,GI50,HT29 colon,358 nM
same,TGI,HT29 colon,> 94900 nM
same,GI50,COLO 205 colon,289 nM
same,GI50,CAKI-1 renal,193 nM
same,TGI,CAKI-1 renal,> 100000 nM
same,GI50,TK-10 renal,484 nM
same,TGI,TK-10 renal,> 100000 nM
same,GI50,HCC-2998 colon,502 nM
same,TGI,HCC-2998 colon,9700 nM
same,GI50,OVCAR-3 ovarian,126 nM
same,TGI,OVCAR-3 ovarian,431 nM
same,GI50,M14 melanoma,389 nM
same,TGI,M14 melanoma,22800 nM
same,GI50,UACC-257 melanoma,296 nM
same,TGI,UACC-257 melanoma,15100 nM
same,GI50,SK-MEL-5 melanoma,188 nM
same,TGI,SK-MEL-5 melanoma,382 nM
same,GI50,HS 578T breast,327 nM
same,TGI,HS 578T breast,3660 nM
same,GI50,OVCAR-8 ovarian,347 nM
same,TGI,OVCAR-8 ovarian,> 100000 nM
same,GI50,SN12C renal,267 nM
same,TGI,SN12C renal,> 100000 nM
same,GI50,BT-549 breast,332 nM
same,TGI,BT-549 breast,14900 nM
same,GI50,NCI/ADR-RES ovarian,917 nM
same,TGI,NCI/ADR-RES ovarian,> 100000 nM
same,GI50,SR leukemia,135 nM
same,TGI,SR leukemia,4700 nM
same,GI50,DU-145 prostate,319 nM
same,TGI,DU-145 prostate,35200 nM
same,GI50,OVCAR-4 ovarian,350 nM
same,TGI,OVCAR-4 ovarian,> 100000 nM
same,GI50,NCI-H460 lung,303 nM
same,TGI,NCI-H460 lung,34300 nM
same,GI50,A549 NSCLC,214 nM
same,TGI,A549 NSCLC,> 100000 nM
same,GI50,MALME-3M melanoma,260 nM
same,TGI,MALME-3M melanoma,773 nM
same,GI50,T-47D breast,201 nM
same,TGI,T-47D breast,> 100000 nM
same,GI50,SF-539 CNS,246 nM
same,TGI,SF-539 CNS,1170 nM
same,GI50,MCF7 breast,282 nM
same,TGI,MCF7 breast,> 100000 nM
same,GI50,OVCAR-5 ovarian,405 nM
same,TGI,OVCAR-5 ovarian,7160 nM
same,GI50,MDA-MB-231 breast,413 nM
same,TGI,MDA-MB-231 breast,> 54100 nM
same,GI50,SNB-75 CNS,167 nM
same,TGI,SNB-75 CNS,1570 nM
same,GI50,KM12 colon,175 nM
same,TGI,KM12 colon,> 60300 nM
same,GI50,EKVX NSCLC,491 nM
same,TGI,EKVX NSCLC,> 100000 nM
same,GI50,CCRF-CEM leukemia,280 nM
same,TGI,CCRF-CEM leukemia,> 100000 nM
same,GI50,HCT-15 colon,312 nM
same,TGI,HCT-15 colon,7200 nM
same,GI50,HOP-92 NSCLC,366 nM
same,TGI,HOP-92 NSCLC,7110 nM
same,GI50,NCI-H226 lung,320 nM
same,TGI,NCI-H226 lung,2510 nM
same,GI50,SNB-19 CNS,239 nM
same,TGI,SNB-19 CNS,> 100000 nM
same,GI50,LOX IMVI melanoma,215 nM
same,TGI,LOX IMVI melanoma,934 nM
same,GI50,RPMI-8226 leukemia,201 nM
same,TGI,RPMI-8226 leukemia,1350 nM
same,GI50,NCI-H522 lung,220 nM
same,TGI,NCI-H522 lung,13400 nM
same,GI50,ACHN renal,238 nM
same,TGI,ACHN renal,1480 nM
same,GI50,K-562 leukemia,194 nM
same,TGI,K-562 leukemia,> 100000 nM
same,GI50,NCI-H23 lung,307 nM
same,TGI,NCI-H23 lung,19200 nM
same,GI50,SF-295 CNS,482 nM
same,TGI,SF-295 CNS,30800 nM
same,GI50,IGROV1 ovarian,220 nM
same,TGI,IGROV1 ovarian,6000 nM
same,GI50,RXF 393 renal,316 nM
same,TGI,RXF 393 renal,1010 nM
same,GI50,SK-MEL-2 melanoma,316 nM
same,TGI,SK-MEL-2 melanoma,1620 nM
same,GI50,UO-31 renal,272 nM
same,TGI,UO-31 renal,1300 nM
same,GI50,MOLT-4 leukemia,319 nM
same,TGI,MOLT-4 leukemia,> 46700 nM
